Data reported in PubChem BioAssay AID292 (DTP/NCI, 2004).
Where “and” joins values, the source holds several entries; their conditions need not be identical. Equal values may be shown once. Toxic doses and inconclusive results are not listed.

Test system: B6C3F1 mice, ip Sarcoma M5076, median survival T/C
Assay: NCI In Vivo Anticancer Drug Screen. Data for tumor model Sarcoma M5076 (intraperitoneal) in B6C3F1 mice
Conditions: endpoint: median survival time, higher = longer survival
Summary of the method: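 Antitumour effect is judged in tumour-bearing mice by comparing survival after compound dosing against vehicle-only animals, reported as T/C.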

[1] = dose: 50.0 mg/kg/injection, schedule: Q04DX004 (ip), vehicle: saline
[2] = dose: 100.0 mg/kg/injection, schedule: Q04DX004 (ip), vehicle: saline
[3] = dose: 200.0 mg/kg/injection, schedule: Q04DX004 (ip), vehicle: saline
[4] = dose: 400.0 mg/kg/injection, schedule: Q04DX004 (ip), vehicle: saline
[5] = dose: 800.0 mg/kg/injection, schedule: Q04DX004 (ip), vehicle: saline
[6] = dose: 25.0 mg/kg/injection, schedule: Q04DX004 (ip), vehicle: saline with Tween-80
[7] = dose: 50.0 mg/kg/injection, schedule: Q04DX004 (ip), vehicle: saline with Tween-80
[8] = dose: 100.0 mg/kg/injection, schedule: Q04DX004 (ip), vehicle: saline with Tween-80
[9] = dose: 200.0 mg/kg/injection, schedule: Q04DX004 (ip), vehicle: saline with Tween-80
[10] = dose: 50.0 mg/kg/injection, schedule: Q04DX004 (ip), vehicle: Klucel (hydroxypropylcellulose) (HPC)
[11] = dose: 100.0 mg/kg/injection, schedule: Q04DX004 (ip), vehicle: Klucel (hydroxypropylcellulose) (HPC)
[12] = dose: 200.0 mg/kg/injection, schedule: Q04DX004 (ip), vehicle: Klucel (hydroxypropylcellulose) (HPC)
[13] = dose: 400.0 mg/kg/injection, schedule: Q04DX004 (ip), vehicle: Klucel (hydroxypropylcellulose) (HPC)
[14] = dose: 800.0 mg/kg/injection, schedule: Q04DX004 (ip), vehicle: Klucel (hydroxypropylcellulose) (HPC)

In the case of `C=CCc1cn(C2CC(O)C(CO)O2)c(=O)[nH]c1=O` (configuration not stated), the T/C [1] is reported as 99 % of control, the T/C [2] is reported as 93 % of control and the T/C [3] is reported as 93 % of control. The T/C [4] was 101 % of control.

For `Nc1ncnc2c1c1c(=O)[nH]c(=O)[nH]c1n2C1OC(CO)C(O)C1O` (configuration not stated), the T/C (dose: 50.0 mg/kg/injection, schedule: Q04DX004 (ip), vehicle: distilled water + Tween-80) was 106 % of control and 115 % of control, the T/C (dose: 100.0 mg/kg/injection, schedule: Q04DX004 (ip), vehicle: distilled water + Tween-80) was 117 % of control and the T/C (dose: 200.0 mg/kg/injection, schedule: Q04DX004 (ip), vehicle: distilled water + Tween-80) was 104 % of control and 108 % of control. For the same compound, the T/C (dose: 400.0 mg/kg/injection, schedule: Q04DX004 (ip), vehicle: distilled water + Tween-80) was 116 % of control.

`CC1C(c2ccccc2)OC(N2CCOCC2)C(C)(C)CN1C` (configuration not stated) was tested, and the T/C (dose: 150.0 mg/kg/injection, schedule: Q04DX004 (ip), vehicle: saline with Tween-80) was 101 % of control, the T/C (dose: 300.0 mg/kg/injection, schedule: Q04DX004 (ip), vehicle: saline with Tween-80) was 104 % of control and the T/C (dose: 600.0 mg/kg/injection, schedule: Q04DX004 (ip), vehicle: saline with Tween-80) was 99 % of control.

With `CN(C)C=O` the T/C (dose: 10.0 mg/kg/injection, schedule: Q04DX004 (ip), vehicle: saline) was 104 % of control, the T/C (dose: 20.0 mg/kg/injection, schedule: Q04DX004 (ip), vehicle: saline) was 111 % of control and the T/C (dose: 40.0 mg/kg/injection, schedule: Q04DX004 (ip), vehicle: saline) was 104 % of control. For the same compound, the T/C (dose: 80.0 mg/kg/injection, schedule: Q04DX004 (ip), vehicle: saline) was 100 % of control, the T/C [2] was 103 % of control and the T/C (dose: 160.0 mg/kg/injection, schedule: Q04DX004 (ip), vehicle: saline) was 104 % of control. For the same compound, the T/C [3] was 107 % of control, the T/C [4] was 100 % of control and the T/C [5] was 107 % of control. The T/C (dose: 1600.0 mg/kg/injection, schedule: Q04DX004 (ip), vehicle: saline) was 108 % of control.

With `CCCS(=N)(=O)CCC(N)C(=O)O` (configuration not stated) the T/C [1] was 103 % of control, the T/C [2] was 105 % of control and the T/C [3] was 102 % of control. The T/C [4] was 102 % of control and the T/C [5] was 105 % of control.

In the case of `CC(CN1CC(=O)NC(=O)C1)N1CC(=O)NC(=O)C1` (configuration not stated), the T/C (dose: 25.0 mg/kg/injection, schedule: Q04DX005 (ip), vehicle: saline with Tween-80) is reported as 118 % of control and the T/C (dose: 50.0 mg/kg/injection, schedule: Q04DX005 (ip), vehicle: saline with Tween-80) is reported as 103 % of control.

In the case of `COc1cc(C(C)(C)C)cc(OC)c1C(O)(c1c(OC)cc(C(C)(C)C)cc1OC)c1c(OC)cc(C(C)(C)C)cc1OC`, the T/C [6] is reported as 123 % of control, the T/C [7] is reported as 116 % of control and the T/C [8] is reported as 108 % of control. For the same compound, the T/C [9] was 123 % of control.

With `CC1=C[P+](c2ccccc2)(c2ccccc2)C=C(c2ccccc2)O1` the T/C (dose: 1.25 mg/kg/injection, schedule: Q04DX004 (ip), vehicle: saline + alcohol) was 110 % of control, the T/C (dose: 5.0 mg/kg/injection, schedule: Q04DX004 (ip), vehicle: saline + alcohol) was 110 % of control and the T/C (dose: 10.0 mg/kg/injection, schedule: Q04DX004 (ip), vehicle: saline + alcohol) was 117 % of control.

In the case of `CC1CCC(NC(=O)N(CCCl)N=O)CC1` (configuration not stated), the T/C (dose: 3.0 mg/kg/injection, schedule: Q01DX004 (ip), vehicle: Klucel (hydroxypropylcellulose) (HPC)) is reported as 108 % of control, the T/C (dose: 6.0 mg/kg/injection, schedule: Q01DX004 (ip), vehicle: Klucel (hydroxypropylcellulose) (HPC)) is reported as 104 % of control and the T/C (dose: 12.0 mg/kg/injection, schedule: Q01DX004 (ip), vehicle: Klucel (hydroxypropylcellulose) (HPC)) is reported as 108 % of control. The T/C (dose: 48.0 mg/kg/injection, schedule: Q04DX004 (ip), vehicle: Klucel (hydroxypropylcellulose) (HPC)) was 254 % of control.

For `C[n+]1c(-c2ccc(/C=N/NC(=O)c3ccc(C(=O)N/N=C/c4ccc(-c5cn6ccccc6[n+]5C)cc4)cc3)cc2)cn2ccccc21`, the T/C [7] was 104 % of control, the T/C [8] was 98 % of control and the T/C [9] was 108 % of control. For the same compound, the T/C (dose: 400.0 mg/kg/injection, schedule: Q04DX004 (ip), vehicle: saline with Tween-80) was 115 % of control and the T/C (dose: 800.0 mg/kg/injection, schedule: Q04DX004 (ip), vehicle: saline with Tween-80) was 112 % of control.

For `CC1(C)Nc2cc3c(cc2-n2cccc21)oc1ccccc13`, the T/C (dose: 150.0 mg/kg/injection, schedule: Q04DX004 (ip), vehicle: DMSO) was 101 % of control, the T/C (dose: 300.0 mg/kg/injection, schedule: Q04DX004 (ip), vehicle: DMSO) was 100 % of control and the T/C (dose: 600.0 mg/kg/injection, schedule: Q04DX004 (ip), vehicle: DMSO) was 101 % of control. For the same compound, the T/C (dose: 1200.0 mg/kg/injection, schedule: Q04DX004 (ip), vehicle: DMSO) was 97 % of control.

For `N#CC1C(=O)NC(=S)NC1c1ccco1` (configuration not stated), the T/C [10] was 98 % of control and the T/C [11] was 100 % of control.

`CC(=O)NC(CSC1=C2NC(=O)\C=C/C=C/C=C\C(C)C(O)CC(=O)/C(C)=C\CC(O)/C=C/C(C)C(O)C(C)C=C(C)C(=O)c3c(O)c(C)cc(c3C1=O)C2=O)C(=O)O` (configuration not stated) was tested, and the T/C (dose: 1.25 mg/kg/injection, schedule: Q04DX004 (ip), vehicle: Klucel (hydroxypropylcellulose) (HPC)) was 100 % of control, the T/C (dose: 2.5 mg/kg/injection, schedule: Q04DX004 (ip), vehicle: Klucel (hydroxypropylcellulose) (HPC)) was 100 % of control and the T/C (dose: 5.0 mg/kg/injection, schedule: Q04DX004 (ip), vehicle: Klucel (hydroxypropylcellulose) (HPC)) was 101 % of control. The T/C (dose: 10.0 mg/kg/injection, schedule: Q04DX004 (ip), vehicle: Klucel (hydroxypropylcellulose) (HPC)) was 93 % of control and the T/C (dose: 20.0 mg/kg/injection, schedule: Q04DX004 (ip), vehicle: Klucel (hydroxypropylcellulose) (HPC)) was 100 % of control.

In the case of `NC(N)=NS(=O)(=O)c1ccc(NCc2c3ccccc3nc3ccccc23)cc1`, the T/C [10] is reported as 159 % of control, the T/C [11] is reported as 151 % of control and the T/C [12] is reported as 178 % of control. For the same compound, the T/C [13] was 158 % of control and 207 % of control and the T/C [14] was 167 % of control and 194 % of control.

With `O=C1C=CC(=CC=C2C=CN(CCCCCCCCCCCO)C=C2)C=C1` the T/C (dose: 6.25 mg/kg/injection, schedule: Q04DX004 (ip), vehicle: saline with Tween-80) was 102 % of control, the T/C (dose: 12.5 mg/kg/injection, schedule: Q04DX004 (ip), vehicle: saline with Tween-80) was 109 % of control and the T/C [6] was 102 % of control. For the same compound, the T/C [7] was 111 % of control.

For `CC(=O)C[n+]1ccccc1Sc1ccc(Cl)cc1`, the T/C [6] was 98 % of control, the T/C [7] was 86 % of control and the T/C [8] was 88 % of control.

`c1ccc(P(CCNCCP(c2ccccc2)c2ccccc2)c2ccccc2)cc1` was tested, and the T/C [6] was 88 % of control, the T/C [7] was 92 % of control and the T/C [8] was 90 % of control.

In the case of `CNC(=O)OCc1nc(SC)n(C)c1COC(=O)NC`, the T/C (dose: 25.0 mg/kg/injection, schedule: Q04DX004 (ip), vehicle: saline) is reported as 122 % of control, the T/C (dose: 25.0 mg/kg/injection, schedule: Q04DX004 (ip), vehicle: suspension in saline) is reported as 119 % of control and the T/C [1] is reported as 119 % of control. The T/C (dose: 50.0 mg/kg/injection, schedule: Q04DX004 (ip), vehicle: suspension in saline) was 122 % of control, the T/C [2] was 151 % of control and the T/C [3] was 184 % of control. For the same compound, the T/C (dose: 200.0 mg/kg/injection, schedule: Q04DX004 (ip), vehicle: suspension in saline) was 193 % of control.

For `CC(=O)OCCN1CCOC(O)(c2cccc(C(F)(F)F)c2)C1` (configuration not stated), the T/C (dose: 11.25 mg/kg/injection, schedule: Q04DX004 (ip), vehicle: saline with Tween-80) was 97 % of control, the T/C (dose: 22.5 mg/kg/injection, schedule: Q04DX004 (ip), vehicle: saline with Tween-80) was 96 % of control and the T/C (dose: 45.0 mg/kg/injection, schedule: Q04DX004 (ip), vehicle: saline with Tween-80) was 97 % of control. For the same compound, the T/C (dose: 90.0 mg/kg/injection, schedule: Q04DX004 (ip), vehicle: saline with Tween-80) was 100 % of control and the T/C (dose: 180.0 mg/kg/injection, schedule: Q04DX004 (ip), vehicle: saline with Tween-80) was 98 % of control.

With `CN1C(=O)C2CC(O)C(SC3CC4C(=O)N(C)C(=O)C4CC3O)CC2C1=O` (configuration not stated) the T/C (dose: 37.5 mg/kg/injection, schedule: Q04DX004 (ip), vehicle: water) was 101 % of control, the T/C (dose: 75.0 mg/kg/injection, schedule: Q04DX004 (ip), vehicle: water) was 105 % of control and the T/C (dose: 150.0 mg/kg/injection, schedule: Q04DX004 (ip), vehicle: water) was 102 % of control. For the same compound, the T/C (dose: 300.0 mg/kg/injection, schedule: Q04DX004 (ip), vehicle: water) was 97 % of control and the T/C (dose: 600.0 mg/kg/injection, schedule: Q04DX004 (ip), vehicle: water) was 107 % of control.

`COc1ccc(CCN2C(=O)C(=O)N(c3ccc(Cl)c(Cl)c3)C2=O)cc1OC` was tested, and the T/C [10] was 99 % of control, the T/C [11] was 98 % of control and the T/C [12] was 94 % of control. The T/C [13] was 89 % of control and the T/C [14] was 93 % of control.
